Assay results published in patent US8022206B2 (OSI Pharmaceuticals, LLC, priority 2008, dated 2011).
pIC50: −log10 of the molar value.

What was measured:
[1] = target: RON (human) (Homo sapiens, UniProt Q04912); assay: RON (human) AlphaScreen kinase assay, Km of ATP; format: biochemical; conditions: AlphaScreen, Km of ATP; read-out: RON biochemical IC50
Method in brief: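 Detection used PT66 AlphaScreen beads added in Tris pH 7.5/NaCl/EDTA/BSA buffer, read after 1 h incubation. Vehicle-only DMSO wells served as controls.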

[2] = target: MET (human) (Homo sapiens, UniProt P08581); assay: MET (human) AlphaScreen kinase assay, Km of ATP; format: biochemical; conditions: AlphaScreen, Km of ATP; read-out: Met biochemical IC50
MET (human), sequence (P08581 25-1390): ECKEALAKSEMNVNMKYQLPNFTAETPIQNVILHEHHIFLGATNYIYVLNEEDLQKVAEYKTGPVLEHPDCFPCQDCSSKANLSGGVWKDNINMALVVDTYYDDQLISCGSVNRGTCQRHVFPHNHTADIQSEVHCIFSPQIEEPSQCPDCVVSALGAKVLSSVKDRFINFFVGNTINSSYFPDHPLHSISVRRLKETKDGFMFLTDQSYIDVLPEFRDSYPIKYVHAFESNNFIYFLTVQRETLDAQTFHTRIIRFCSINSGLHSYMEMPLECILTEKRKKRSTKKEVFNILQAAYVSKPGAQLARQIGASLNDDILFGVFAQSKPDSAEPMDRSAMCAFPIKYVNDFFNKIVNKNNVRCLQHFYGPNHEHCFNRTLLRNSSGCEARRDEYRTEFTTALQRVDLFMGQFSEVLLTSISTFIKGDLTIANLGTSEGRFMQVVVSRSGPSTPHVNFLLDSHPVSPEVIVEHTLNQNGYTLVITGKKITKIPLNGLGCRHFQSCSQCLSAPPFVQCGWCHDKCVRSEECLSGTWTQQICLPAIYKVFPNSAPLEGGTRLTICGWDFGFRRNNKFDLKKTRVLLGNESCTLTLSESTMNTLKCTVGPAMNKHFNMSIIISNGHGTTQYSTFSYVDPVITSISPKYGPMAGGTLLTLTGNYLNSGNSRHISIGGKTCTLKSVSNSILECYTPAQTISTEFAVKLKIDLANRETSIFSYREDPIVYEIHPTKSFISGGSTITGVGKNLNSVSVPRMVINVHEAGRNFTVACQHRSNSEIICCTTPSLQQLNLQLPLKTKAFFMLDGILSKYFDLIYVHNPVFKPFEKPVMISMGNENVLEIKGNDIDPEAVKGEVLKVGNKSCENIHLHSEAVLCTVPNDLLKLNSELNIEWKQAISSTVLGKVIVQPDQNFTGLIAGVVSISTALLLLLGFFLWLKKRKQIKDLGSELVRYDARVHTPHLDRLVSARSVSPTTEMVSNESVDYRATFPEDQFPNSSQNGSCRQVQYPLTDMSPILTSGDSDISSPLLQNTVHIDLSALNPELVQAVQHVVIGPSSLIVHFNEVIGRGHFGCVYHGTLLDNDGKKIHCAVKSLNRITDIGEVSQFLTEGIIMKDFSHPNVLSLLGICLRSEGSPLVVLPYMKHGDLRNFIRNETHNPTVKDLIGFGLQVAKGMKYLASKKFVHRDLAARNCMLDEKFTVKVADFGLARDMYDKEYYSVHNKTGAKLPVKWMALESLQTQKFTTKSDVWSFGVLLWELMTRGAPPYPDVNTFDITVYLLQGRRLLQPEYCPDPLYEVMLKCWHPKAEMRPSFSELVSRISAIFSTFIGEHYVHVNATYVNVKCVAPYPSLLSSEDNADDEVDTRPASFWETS
Method in brief: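 Human MET at lot-optimised concentration in 50 mM Tris pH 7.4 buffer with 1 mM DTT, compound at 1% DMSO final; enzyme starts the reaction, 60 min at RT.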

RON (human), sequence (Q04912 25-1400): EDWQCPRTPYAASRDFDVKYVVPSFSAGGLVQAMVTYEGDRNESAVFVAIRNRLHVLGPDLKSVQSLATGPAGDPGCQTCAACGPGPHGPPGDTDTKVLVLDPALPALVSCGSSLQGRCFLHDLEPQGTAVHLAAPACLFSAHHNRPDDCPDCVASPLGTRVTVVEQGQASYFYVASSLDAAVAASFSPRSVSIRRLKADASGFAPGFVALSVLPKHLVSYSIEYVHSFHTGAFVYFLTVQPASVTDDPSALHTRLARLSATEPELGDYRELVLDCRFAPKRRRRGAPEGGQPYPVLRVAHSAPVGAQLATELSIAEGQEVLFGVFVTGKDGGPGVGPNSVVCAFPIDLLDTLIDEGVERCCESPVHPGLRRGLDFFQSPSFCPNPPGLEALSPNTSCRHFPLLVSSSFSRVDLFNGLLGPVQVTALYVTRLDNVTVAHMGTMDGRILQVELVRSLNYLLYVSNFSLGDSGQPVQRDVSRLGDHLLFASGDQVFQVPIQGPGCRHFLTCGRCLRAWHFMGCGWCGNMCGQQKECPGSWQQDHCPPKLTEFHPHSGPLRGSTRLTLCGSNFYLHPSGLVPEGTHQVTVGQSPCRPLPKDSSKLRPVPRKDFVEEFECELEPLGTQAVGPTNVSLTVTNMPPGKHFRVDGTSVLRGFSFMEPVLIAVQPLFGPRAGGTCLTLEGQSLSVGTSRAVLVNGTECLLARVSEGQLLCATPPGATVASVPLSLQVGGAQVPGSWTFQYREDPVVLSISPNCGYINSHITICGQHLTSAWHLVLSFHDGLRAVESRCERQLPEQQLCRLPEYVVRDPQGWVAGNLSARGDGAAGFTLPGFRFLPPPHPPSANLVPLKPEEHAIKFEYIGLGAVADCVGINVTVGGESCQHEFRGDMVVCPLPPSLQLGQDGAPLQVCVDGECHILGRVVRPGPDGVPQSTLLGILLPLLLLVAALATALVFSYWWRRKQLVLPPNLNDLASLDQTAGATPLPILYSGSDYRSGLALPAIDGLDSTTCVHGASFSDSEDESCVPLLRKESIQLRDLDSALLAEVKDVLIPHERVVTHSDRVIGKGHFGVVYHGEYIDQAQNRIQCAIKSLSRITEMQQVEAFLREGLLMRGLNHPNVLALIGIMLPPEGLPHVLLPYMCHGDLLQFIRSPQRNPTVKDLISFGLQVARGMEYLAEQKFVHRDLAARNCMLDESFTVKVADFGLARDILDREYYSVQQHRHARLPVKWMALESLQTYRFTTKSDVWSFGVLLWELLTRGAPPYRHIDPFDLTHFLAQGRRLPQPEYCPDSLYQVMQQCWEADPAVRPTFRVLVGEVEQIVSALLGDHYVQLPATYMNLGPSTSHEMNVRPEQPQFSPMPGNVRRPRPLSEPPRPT

pIC50 [1] | pIC50 [2] | Structure (SMILES)
5.30 to 6.30 | 5.30 to 6.30 | CC(C)OC(=O)N1CC=C(c2coc3c(O[C@H](C)c4c(Cl)ccc(F)c4Cl)c(N)ncc23)CC1 [Example 53, 4-{6-Amino-7-[(R)-1-(2,6-dichloro-3-fluorophenyl)-ethoxy]-furo[3,2-c]pyridin-3-yl}-3,6-dihydro-2H-pyridine-1-carboxylic acid isopropyl ester]
> 6.30 | > 6.30 | CC(Oc1c(N)ncc2c(-c3cnn(C4CCNCC4)c3)coc12)c1c(Cl)c(F)cc(OCCCN)c1Cl (centres unmarked) [Example 155, 7-{1-[3-(3-Aminopropoxy)-2,6-dichloro-5-fluorophenyl]ethoxy}-3-[1-(piperidin-4-yl)-1H-pyrazol-4-yl]furo[3,2-c]pyridin-6-amine]
5.30 to 6.30 | 5.30 to 6.30 | CC(Oc1c(N)ncc2c(-c3cnn(C4CCNCC4)c3)coc12)c1cc(F)cc(F)c1 (centres unmarked) [Example 384, 7-[1-(3,5-Difluorophenyl)ethoxy]-3-(1-piperidin-4-yl-1H-pyrazol-4-yl)furo[3,2-c]pyridin-6-ylamine]
5.30 to 6.30 | 5.30 to 6.30 | C=C(C)CC(Oc1c(N)ncc2c(-c3cnn(C4CCNCC4)c3)coc12)c1c(Cl)cccc1Cl (centres unmarked) [Example 363, 7-[1-(2,6-Dichlorophenyl)-3-methylbut-3-enyloxy]-3-(1-piperidin-4-yl-1H-pyrazol-4-yl)furo[3,2-c]pyridin-6-ylamine]
5.30 to 6.30 | 5.30 to 6.30 | C[C@@H](Oc1c(N)ncc2c(-c3ccc(CO)s3)coc12)c1c(Cl)ccc(F)c1Cl [Example 212, (5-{6-Amino-7-[(R)-1-(2,6-dichloro-3-fluorophenyl)ethoxy]-furo[3,2-c]pyridin-3-yl}-thiophen-2-yl)methanol]
4.70 to 5.30 | 5.30 to 6.30 | C[C@@H](Oc1c(N)ncc2c(-c3cccc(NS(=O)(=O)c4ccccc4)c3)coc12)c1c(Cl)ccc(F)c1Cl [Example 243, N-(3-{6-Amino-7-[(R)-1-(2,6-dichloro-3-fluorophenyl)ethoxy]-furo[3,2-c]pyridin-3-yl}phenyl)benzenesulfonamide]
> 6.30 | > 6.30 | C[C@@H](Oc1c(N)ncc2c(C3=CCN(C(=O)[C@H]4CCCCN4)CC3)coc12)c1c(Cl)ccc(F)c1Cl [Example 239, (4-{6-Amino-7-[(R)-1-(2,6-dichloro-3-fluorophenyl)ethoxy]-furo[3,2-c]pyridin-3-yl}-3,6-dihydro-2H-pyridin-1-yl)-(R)-piperidin-2-ylmethanone]
5.30 to 6.30 | 5.30 to 6.30 | C[C@@H](Oc1c(N)ncc2c(C3=CCN(C(=O)c4ncc[nH]4)CC3)coc12)c1c(Cl)ccc(F)c1Cl [Example 232, (4-{6-Amino-7-[(R)-1-(2,6-dichloro-3-fluorophenyl)ethoxy]-furo[3,2-c]pyridin-3-yl}-3,6-dihydro-2H-pyridin-1-yl)-(1H-imidazol-2-yl)-methanone]
5.30 to 6.30 | > 6.30 | CC(Oc1c(N)ncc2c(-c3cnn(C4CCNCC4)c3)coc12)c1ccc(Cl)cc1Cl (centres unmarked) [Example 382, 7-[1-(2,4-Dichlorophenyl)ethoxy]-3-(1-piperidin-4-yl-1H-pyrazol-4-yl)furo[3,2-c]pyridin-6-ylamine]
> 6.30 | > 6.30 | C[C@@H](Oc1c(N)ncc2c(-c3ccc(CN4CCCCC4)s3)coc12)c1c(Cl)ccc(F)c1Cl [Example 215, 7-[(R)-1-(2,6-Dichloro-3-fluorophenyl)ethoxy]-3-(5-piperidin-1-ylmethylthiophen-2-yl)-furo[3,2-c]pyridin-6-ylamine]
5.30 to 6.30 | > 6.30 | C[C@H](Oc1c(N)ncc2c(-c3cnn(C4CCNCC4)c3)coc12)c1ccncc1 [Example 396, 3-(1-Piperidin-4-yl-1H-pyrazol-4-yl)-7-((S)-1-pyridin-4-yl-ethoxy)furo[3,2-c]pyridin-6-ylamine]
5.30 to 6.30 | 5.30 to 6.30 | C[C@@H](Oc1c(N)ncc2c(C3=CCN(C(=O)C(C)(C)O)CC3)coc12)c1c(Cl)ccc(F)c1Cl [Example 228, 1-(4-{6-Amino-7-[(R)-1-(2,6-dichloro-3-fluorophenyl)ethoxy]-furo[3,2-c]pyridin-3-yl}-3,6-dihydro-2H-pyridin-1-yl)-2-hydroxy-2-methylpropan-β-one]
5.30 to 6.30 | > 6.30 | CC(Oc1c(N)ncc2c(-c3cnn(C4CCNCC4)c3)coc12)c1ccc(Br)cc1 (centres unmarked) [Example 388, 7-[1-(4-Bromophenyl)ethoxy]-3-(1-piperidin-4-yl-1H-pyrazol-4-yl)furo[3,2-c]pyridin-6-ylamine]
> 6.30 | > 6.30 | C[C@@H](Oc1c(N)ncc2c(C3=CCN(C(=O)N4CCNCC4)CC3)coc12)c1c(Cl)ccc(F)c1Cl [Example 33, (4-{6-Amino-7-[(R)-1-(2,6-dichloro-3-fluorophenyl)-ethoxy]-furo[3,2-c]pyridin-3-yl}-3,6-dihydro-2H-pyridin-1-yl)-piperazin-1-ylmethanone]
5.30 to 6.30 | 5.30 to 6.30 | C[C@@H](Oc1c(N)ncc2c(-c3ccc(C(=O)N4CCN(CC(=O)N(C)C)CC4)cc3)coc12)c1c(Cl)ccc(F)c1Cl [Example 300, 2-[4-(4-{6-Amino-7-[(R)-1-(2,6-dichloro-3-fluorophenyl)ethoxy]furo[3,2-c]pyridin-3-yl}benzoyl)piperazin-1-yl]-N,N-dimethylacetamide]
5.30 to 6.30 | 5.30 to 6.30 | C[C@@H](Oc1c(N)ncc2c(C3=CCN(C(=O)c4cnc[nH]4)CC3)coc12)c1c(Cl)ccc(F)c1Cl [Example 233, (4-{6-Amino-7-[(R)-1-(2,6-dichloro-3-fluorophenyl)ethoxy]-furo[3,2-c]pyridin-3-yl}-3,6-dihydro-2H-pyridin-1-yl)-(3H-imidazol-4-yl)-methanone]

The next lines start with the molecule.

Structure (SMILES) | pIC50 [1] | pIC50 [2]
C[C@@H](Oc1c(N)ncc2c(C3=CCOCC3)coc12)c1c(Cl)ccc(F)c1Cl [Example 138, 7-[(R)-1-(2,6-Dichloro-3-fluorophenyl)-ethoxy]-3-(3,6-dihydro-2H-pyran-4-yl)-furo[3,2-c]pyridin-6-ylamine] | 5.30 to 6.30 | > 6.30
Nc1ncc2ccoc2c1OCc1nnc2ccc(-c3ccccc3)nn12 [Example 473, 7-[(6-phenyl[1,2,4]triazolo[4,3-b]pyridazin-3-yl)methoxy]furo[3,2-c]pyridin-6-amine] | < 4.70 | 5.30 to 6.30
C[C@@H](Oc1c(N)ncc2c(-c3csc(C(=O)N4CCN(C)CC4)c3)coc12)c1c(Cl)ccc(F)c1Cl [Example 316, (4-{6-Amino-7-[(R)-1-(2,6-dichloro-3-fluorophenyl)ethoxy]furo[3,2-c]pyridin-3-yl}thiophen-2-yl)-(4-methylpiperazin-1-yl)methanone] | > 6.30 | > 6.30
C[C@@H]1CN(Cc2cc(-c3coc4c(O[C@H](C)c5c(Cl)ccc(F)c5Cl)c(N)ncc34)cs2)C[C@H](C)N1 [Example 305, 7-[(R)-1-(2,6-Dichloro-3-fluorophenyl)ethoxy]-3-[5-(cis-3,5-dimethylpiperazin-1-ylmethyl)thiophen-3-yl]-furo[3,2-c]pyridin-6-ylamine] | > 6.30 | > 6.30
CC(Oc1c(N)ncc2c(C3=CCN(C(N)=O)CC3)coc12)c1c(Cl)ccc(F)c1Cl (centres unmarked) [Example 455, 4-{6-Amino-7-[1-(2,6-dichloro-3-fluorophenyl)ethoxy]furo[3,2-c]pyridin-3-yl}-3,6-dihydro-2H-pyridine-1-carboxamide] | 5.30 to 6.30 | > 6.30
C[C@@H](Oc1c(N)ncc2c(-c3ccc(C(=O)N4CCCCC4)cc3)coc12)c1c(Cl)ccc(F)c1Cl [Example 290, (4-{6-Amino-7-[(R)-1-(2,6-dichloro-3-fluorophenyl)ethoxy]furo[3,2-c]pyridin-3-yl}phenyl)piperidin-1-ylmethanone] | 5.30 to 6.30 | 5.30 to 6.30
C[C@@H](Oc1c(N)ncc2c(C3=CCN(C=O)CC3)coc12)c1c(Cl)ccc(F)c1Cl [Example 10, 4-{6-Amino-7-[(R)-1-(2,6-dichloro-3-fluorophenyl)-ethoxy]-furo[3,2-c]pyridin-3-yl}-3,6-dihydro-2H-pyridine-1-carbaldehyde] | > 6.30 | > 6.30
C[C@@H](Oc1c(N)ncc2c(-c3ccc(Cn4cccn4)cc3)coc12)c1c(Cl)ccc(F)c1Cl [Example 110, 7-[(R)-1-(2,6-Dichloro-3-fluorophenyl)ethoxy]-3-(4-pyrazol-1-ylmethylphenyl)-furo[3,2-c]pyridin-6-ylamine] | 5.30 to 6.30 | 5.30 to 6.30
C#CCC(Oc1c(N)ncc2c(-c3cnn(C4CCNCC4)c3)coc12)c1c(Cl)cccc1Cl (centres unmarked) [Example 341, 7-[1-(2,6-Dichlorophenyl)but-3-ynyloxy]-3-(1-piperidin-4-yl-1H-pyrazol-4-yl)-furo[3,2-c]pyridin-6-ylamine] | > 6.30 | > 6.30
C[C@@H](Oc1c(N)ncc2c(C(=O)NC3CCN(C)CC3)coc12)c1c(Cl)ccc(F)c1Cl [Example 186, 6-Amino-7-[(R)-1-(2,6-dichloro-3-fluorophenyl)ethoxy]furo[3,2-c]pyridine-3-carboxylic acid (1-methylpiperidin-4-yl)amide] | 5.30 to 6.30 | > 6.30
C[C@@H](Oc1c(N)ncc2c(C(=O)NCCN)coc12)c1c(Cl)ccc(F)c1Cl [Example 193, 6-Amino-7-[(R)-1-(2,6-dichloro-3-fluorophenyl)ethoxy]furo[3,2-c]pyridine-3-carboxylic acid (3-aminoethyl)amide] | 5.30 to 6.30 | > 6.30
CC(Cc1c(F)cccc1F)Oc1c(N)ncc2c(-c3cnn(C4CCNCC4)c3)coc12 (centres unmarked) [Example 418, 7-[2-(2,6-Difluorophenyl)-1-methylethoxy]-3-(1-piperidin-4-yl-1H-pyrazol-4-yl)furo[3,2-c]pyridin-6-ylamine] | 5.30 to 6.30 | > 6.30
